Reference: US20110039762A1, “TARGETED ANTIMICROBIAL MOIETIES” (C3 JIAN, INC., priority 2009, published 2011)
“Also recorded” adds a separate entry of the source. Ends that are not written are not given here.

Tests used:
[1] = system: MRSA; assay: Kill or inhibit growth/proliferation; morphology, biofilm and growth disruption (Tables 5, 6); assay type: cell-based, Methicillin-resistant Staphylococcus aureus; set-up: key: A: Peptide aggregates; B: Less hyphal formation; Clumps; Diffuse clumps and small polyps; F: Diffuse growth; H: Thin; I: Growth inhibition; Microcolony formation; Rippled; Small polyps; Thick; W: Halo formation on top, microlonies on bottom; also: test concentration or dose not given here
[2] = system: S. epidermidis; assay: as above; assay type: cell-based, Staphylococcus epidermidis; set-up: key: A: Peptide aggregates; B: Less hyphal formation; Clumps; Diffuse clumps and small polyps; F: Diffuse growth; H: Thin; I: Growth inhibition; Microcolony formation; Rippled; Small polyps; Thick; W: Halo formation on top, microlonies on bottom; also: test concentration or dose not given here
[3] = system: S. pneumoniae; assay: as above; assay type: cell-based, Streptococcus pneumoniae; set-up: key: A: Peptide aggregates; B: Less hyphal formation; Clumps; Diffuse clumps and small polyps; F: Diffuse growth; H: Thin; I: Growth inhibition; Microcolony formation; Rippled; Small polyps; Thick; W: Halo formation on top, microlonies on bottom; also: test concentration or dose not given here
[4] = system: E. coli; assay: as above; assay type: cell-based, Escherichia coli; set-up: key: A: Peptide aggregates; B: Less hyphal formation; Clumps; Diffuse clumps and small polyps; F: Diffuse growth; H: Thin; I: Growth inhibition; Microcolony formation; Rippled; Small polyps; Thick; W: Halo formation on top, microlonies on bottom; also: test concentration or dose not given here
[5] = system: microorganisms; assay: Peptides having multiple activities (targeting/binding, antimicrobial, growth or phenotype altering)
Source text: In certain embodiments, peptides described herein can have multiple activities. Thus for example, a peptide can have both binding/targeting activity and antimicrobial activity. Such peptides can be used, e.g., in a chimeric construct, for any or all of these properties. Thus, for example, a peptide designated “B” in Table 8 can be used as a targeting peptide. If it is also designated G or M it can also be used for antimicrobial activity.

[6] = system: E. faecalis; assay: Kill or inhibit growth/proliferation; morphology, biofilm and growth disruption (Tables 5, 6); assay type: cell-based, Enterococcus faecalis; set-up: key: A: Peptide aggregates; B: Less hyphal formation; Clumps; Diffuse clumps and small polyps; F: Diffuse growth; H: Thin; I: Growth inhibition; Microcolony formation; Rippled; Small polyps; Thick; W: Halo formation on top, microlonies on bottom; also: test concentration or dose not given here
[7] = system: microorganisms (e.g., bacteria, yeasts, fungi); assay: Targeting peptide binding to target microorganisms (Table 3); settings: microorganism(s) the targeting peptide binds, preferably 1x PBS
[8] = binding in aqueous buffers depending on peptide solubility
[9] = peptide binding conducted in aqueous buffers varied by peptide solubility

Substance: PF-178: peptide having multiple activities (EVYSSPTNNVAITVQNN; Peptide with targeting and/or antimicrobial activity)
- Organism, effect [1]: MRSA (M)
- Organism, effect [2]: S. epidermidis (D)
- Organism, effect [3]: S. pneumoniae (D)
- Organism, effect [4]: E. coli (C)
- Activities [5]: G B

Substance: PF-347: peptide having multiple activities (GIFTGVTVVVSLKHC; Peptide with targeting and/or antimicrobial activity)
- Organism, effect [6]: E. faecalis (C)
- Organism, effect [1]: MRSA (C)
- Organism, effect [2]: S. epidermidis (C)
- Organism, effect [4]: E. coli (C)
- Activities [5]: G B

Substance: PF-360: peptide having multiple activities (chain 1 MEQKVKVIFVPRSKPDNQLKTFVSAVLFKA; chain 2 MEQKVKVIFVPRSKPDNQLKTFVSAVLFKA; Peptide with targeting and/or antimicrobial activity)
- Organism, effect [1]: MRSA (H)
- Organism, effect [2]: S. epidermidis (S)
- Organism, effect [4]: E. coli (C)
- Target(s) [7, 8]: S. epidermidis; also recorded: B. subtilis; also recorded: E. coli; also recorded: P. aeruginosa; also recorded: C. albicans; also recorded: E. faecalis; also recorded: C. jeikeium; also recorded: C. jejuni
- Activities [5]: G B

Substance: PF-370: peptide having multiple activities (chain 1 VIFLHKESGNLKEIFY; chain 2 VIFLHKESGNLKEIFY; Peptide with targeting and/or antimicrobial activity)
- Organism, effect [1]: MRSA (C)
- Organism, effect [2]: S. epidermidis (C)
- Organism, effect [4]: E. coli (R)
- Target(s) [7, 8]: S. epidermidis; also recorded: E. coli; also recorded: P. aeruginosa; also recorded: E. faecalis; also recorded: C. jejuni
- Activities [5]: G B

Substance: PF-374: peptide having multiple activities (chain 1 HLFFVKGMFILCQKNQINDE; chain 2 HLFFVKGMFILCQKNQINDE; Peptide with targeting and/or antimicrobial activity)
- Organism, effect [6]: E. faecalis (C)
- Organism, effect [1]: MRSA (M)
- Organism, effect [2]: S. epidermidis (C)
- Organism, effect [4]: E. coli (C)
- Activities [5]: G B

Substance: PF-376: peptide having multiple activities (chain 1 MTVFEALMLAIAFATLIVKISNKNDKK; chain 2 MTVFEALMLAIAFATLIVKISNKNDKK; Peptide with targeting and/or antimicrobial activity)
- Organism, effect [6]: E. faecalis (C)
- Organism, effect [1]: MRSA (C)
- Organism, effect [2]: S. epidermidis (C)
- Organism, effect [4]: E. coli (C)
- Activities [5]: G B

Substance: PF-379: peptide having multiple activities (chain 1 VFVVLFIIYLASKLLTKLFPIKK; chain 2 VFVVLFIIYLASKLLTKLFPIKK; Peptide with targeting and/or antimicrobial activity)
- Organism, effect [6]: E. faecalis (C)
- Organism, effect [1]: MRSA (C)
- Organism, effect [2]: S. epidermidis (C)
- Organism, effect [4]: E. coli (C)
- Activities [5]: G B

Substance: PF-386: peptide having multiple activities (chain 1 FTLTLITTIVAILNYKDKKK; chain 2 FTLTLITTIVAILNYKDKKK; Peptide with targeting and/or antimicrobial activity)
- Organism, effect [6]: E. faecalis (C)
- Organism, effect [1]: MRSA (C)
- Organism, effect [2]: S. epidermidis (C)
- Organism, effect [4]: E. coli (C)
- Activities [5]: G B

Substance: PF-395: peptide having multiple activities (YCVPLGNMGNMNNKIW; Peptide with targeting and/or antimicrobial activity)
- Organism, effect [1]: MRSA (C)
- Organism, effect [2]: S. epidermidis (C)
- Organism, effect [4]: E. coli (R)
- Target(s) [7, 9]: S. epidermidis; also recorded: E. coli; also recorded: P. aeruginosa; also recorded: S. pneumoniae; also recorded: E. faecalis; also recorded: C. jeikeium; also recorded: C. jejuni
- Activities [5]: G B

Substance: PF-403: peptide having multiple activities (LLSTEQLLKYYDGETFDGFQLPSNE; Peptide with targeting and/or antimicrobial activity)
- Organism, effect [1]: MRSA (M)
- Organism, effect [2]: S. epidermidis (M)
- Organism, effect [4]: E. coli (R)
- Target(s) [7, 9]: E. coli; also recorded: P. aeruginosa; also recorded: S. pneumoniae; also recorded: E. faecalis; also recorded: C. jeikeium; also recorded: C. jejuni
- Activities [5]: G B

Substance: PF-413: peptide having multiple activities (TFAGSIKIGVPDLVHVTFNCKR; Peptide with targeting and/or antimicrobial activity)
- Organism, effect [1]: MRSA (C)
- Organism, effect [2]: S. epidermidis (C)
- Organism, effect [4]: E. coli (S)
- Target(s) [7, 9]: P. aeruginosa; also recorded: C. albicans; also recorded: C. jejuni
- Activities [5]: G B

Substance: PF-427: peptide having multiple activities (YVLEYHGLRATQDVDAFMAL; Peptide with targeting and/or antimicrobial activity)
- Organism, effect [6]: E. faecalis (C)
- Organism, effect [1]: MRSA (C)
- Organism, effect [3]: S. pneumoniae (R)
- Organism, effect [4]: E. coli (C)
- Target(s) [7, 9]: M. luteus; also recorded: P. aeruginosa; also recorded: C. albicans; also recorded: C. jejuni
- Activities [5]: G B

Substance: PF-453: peptide having multiple activities (chain 1 IIQDIAHAFGY; chain 2 IIQDIAHAFGY; Peptide with targeting and/or antimicrobial activity)
- Organism, effect [1]: MRSA (C)
- Organism, effect [2]: S. epidermidis (C)
- Organism, effect [3]: S. pneumoniae (C)
- Organism, effect [4]: E. coli (C)
- Target(s) [7, 9]: M. luteus; also recorded: E. coli; also recorded: P. aeruginosa; also recorded: S. pneumoniae; also recorded: E. faecalis; also recorded: C. jeikeium; also recorded: C. jejuni
- Activities [5]: G B

Substance: PF-478: peptide having multiple activities (chain 1 HLFILKSHLKPFPPFRYTYD; chain 2 HLFILKSHLKPFPPFRYTYD; Peptide with targeting and/or antimicrobial activity)
- Organism, effect [1]: MRSA (H)
- Organism, effect [2]: S. epidermidis (C)
- Organism, effect [3]: S. pneumoniae (C)
- Organism, effect [4]: E. coli (C)
- Activities [5]: G B

Substance: PF-514: peptide having multiple activities (chain 1 QRFYKLFYHIDLTNEQALKLFQVK; chain 2 QRFYKLFYHIDLTNEQALKLFQVK; Peptide with targeting and/or antimicrobial activity)
- Organism, effect [6]: E. faecalis (C)
- Organism, effect [2]: S. epidermidis (C)
- Organism, effect [3]: S. pneumoniae (M)
- Organism, effect [4]: E. coli (R)
- Target(s) [7, 9]: S. epidermidis and E. coli and P. aeruginosa and C. albicans and MRSA and S. pneumoniae and E. faecalis and C. jeikeium
- Activities [5]: G B

Substance: PF-519: peptide having multiple activities (chain 1 YLVYSGVLATAAAF-NH2; chain 2 YLVYSGVLATAAAF-NH2)
- Organism, effect [6]: E. faecalis (C)
- Organism, effect [1]: MRSA (C)
- Organism, effect [3]: S. pneumoniae (S)
- Organism, effect [4]: E. coli (R)
- Target(s) [7, 9]: M. luteus; also recorded: E. faecalis; also recorded: C. jeikeium
- Activities [5]: G B

Substance: PF-532 (KFIYKYKLSFIIYKILIQTLTMELNK; Peptide with targeting and/or antimicrobial activity)
- Organism, effect [6]: E. faecalis (C)
- Organism, effect [1]: MRSA (C)
- Organism, effect [3]: S. pneumoniae (C)
- Organism, effect [4]: E. coli (C)

Substance: PF-540: peptide having multiple activities (chain 1 KSILILIKVIFIGQTTIIL; chain 2 KSILILIKVIFIGQTTIIL; Peptide with targeting and/or antimicrobial activity)
- Organism, effect [1]: MRSA (H)
- Organism, effect [2]: S. epidermidis (H)
- Organism, effect [3]: S. pneumoniae (R)
- Organism, effect [4]: E. coli (R)
- Target(s) [7, 9]: C. albicans
- Activities [5]: G B

Substance: PF-619: peptide having multiple activities (WSRVPGHSDTGWKVWHRW; Peptide with targeting and/or antimicrobial activity)
- Organism, effect [1]: MRSA (M)
- Organism, effect [2]: S. epidermidis (M)
- Organism, effect [3]: S. pneumoniae (C)
- Organism, effect [4]: E. coli (C)
- Activities [5]: G B
